Columns and labels:
BT-549 = test: Growth inhibition of human BT549 cells at 10 uM incubated for 48 hrs by sulforhodamine B assay relative to control; format: functional; settings: BT-549, 48 h, values are per cent of control
OVCAR-5 = test: Growth of human OVCAR5 cells at 10 uM incubated for 48 hrs by sulforhodamine B assay relative to control; settings: OVCAR-5, 48 h
NCI-H522 = test: Growth of human NCI-H522 cells at 10 uM incubated for 48 hrs by sulforhodamine B assay relative to control; settings: NCI-H522, 48 h
HT-29 = test: Growth of human HT-29 cells at 10 uM incubated for 48 hrs by sulforhodamine B assay relative to control; settings: HT-29, 48 h
NCI/ADR-RES = test: Growth inhibition of human NCI/ADR-RES cells at 10 uM incubated for 48 hrs by sulforhodamine B assay relative to control; format: functional; settings: values are per cent of control
M14 = test: Growth of human M14 cells at 10 uM incubated for 48 hrs by sulforhodamine B assay relative to control; settings: M14, 48 h
OVCAR-4 = test: Growth of human OVCAR4 cells at 10 uM incubated for 48 hrs by sulforhodamine B assay relative to control; settings: OVCAR-4, 48 h
OVCAR-3 = test: Growth of human OVCAR3 cells at 10 uM incubated for 48 hrs by sulforhodamine B assay relative to control; settings: OVCAR-3, 48 h
786-0 = test: Growth inhibition of human 786-0 cells at 10 uM incubated for 48 hrs by sulforhodamine B assay relative to control; format: functional; settings: 786-0, 48 h, values are per cent of control
DU-145 = test: Growth inhibition of human DU145 cells at 10 uM incubated for 48 hrs by sulforhodamine B assay relative to control; format: functional; settings: DU-145, 48 h, values are per cent of control
Hs-578T = test: Growth inhibition of human Hs 578T cells at 10 uM incubated for 48 hrs by sulforhodamine B assay relative to control; format: functional; settings: values are per cent of control
MDA-MB-468 = test: Growth inhibition of human MDA-MB-468 cells at 10 uM incubated for 48 hrs by sulforhodamine B assay relative to control; format: functional; settings: MDA-MB-468, 48 h, values are per cent of control
K562 = test: Growth of human K562 cells at 10 uM incubated for 48 hrs by sulforhodamine B assay relative to control; settings: K562, 48 h
T47D = test: Growth inhibition of human T47D cells at 10 uM incubated for 48 hrs by sulforhodamine B assay relative to control; format: functional; settings: values are per cent of control
MDA-MB-231 = test: Growth inhibition of human MDA-MB-231 cells at 10 uM incubated for 48 hrs by sulforhodamine B assay relative to control; format: functional; settings: MDA-MB-231, 48 h, values are per cent of control
EKVX = test: Growth of human EKVX cells at 10 uM incubated for 48 hrs by sulforhodamine B assay relative to control
U-251 = test: Growth of human U251 cells at 10 uM incubated for 48 hrs by sulforhodamine B assay relative to control; settings: U-251, 48 h
UACC-257 = test: Growth of human UACC257 cells at 10 uM incubated for 48 hrs by sulforhodamine B assay relative to control; settings: UACC-257, 48 h
SK-MEL-2 = test: Growth of human SK-MEL-2 cells at 10 uM incubated for 48 hrs by sulforhodamine B assay relative to control; settings: SK-MEL-2, 48 h
HOP-92 = test: Growth inhibition of human HOP92 cells at 10 uM incubated for 48 hrs by sulforhodamine B assay relative to control; format: functional; settings: HOP-92, 48 h, values are per cent of control
SK-MEL-5 = test: Growth of human SK-MEL-5 cells at 10 uM incubated for 48 hrs by sulforhodamine B assay relative to control; settings: SK-MEL-5, 48 h
SK-OV-3 = test: Growth inhibition of human SKOV3 cells at 10 uM incubated for 48 hrs by sulforhodamine B assay relative to control; format: functional; settings: SK-OV-3, 48 h, values are per cent of control
MOLT-4 = test: Growth of human MOLT4 cells at 10 uM incubated for 48 hrs by sulforhodamine B assay relative to control; settings: MOLT-4, 48 h
NCI-H226 = test: Growth inhibition of human NCI-H226 cells at 10 uM incubated for 48 hrs by sulforhodamine B assay relative to control; format: functional; settings: NCI-H226, 48 h, values are per cent of control
RPMI-8226 = test: Growth of human RPMI8226 cells at 10 uM incubated for 48 hrs by sulforhodamine B assay relative to control; settings: RPMI-8226, 48 h
HL-60(TB) = test: Growth inhibition of human HL-60(TB) cells at 10 uM incubated for 48 hrs by sulforhodamine B assay relative to control; format: functional; settings: HL-60, 48 h, values are per cent of control
SN12C = test: Growth inhibition of human SN12C cells at 10 uM incubated for 48 hrs by sulforhodamine B assay relative to control; format: functional; settings: values are per cent of control

SMILES | growth, % of control at 10 µM (BT-549) [%] | growth, % of control at 10 µM (OVCAR-5) [%] | growth, % of control at 10 µM (NCI-H522) [%] | growth, % of control at 10 µM (HT-29) [%] | growth, % of control at 10 µM (NCI/ADR-RES) [%] | growth, % of control at 10 µM (M14) [%] | growth, % of control at 10 µM (OVCAR-4) [%] | growth, % of control at 10 µM (OVCAR-3) [%] | growth, % of control at 10 µM (786-0) [%] | growth, % of control at 10 µM (DU-145) [%] | growth, % of control at 10 µM (Hs-578T) [%] | growth, % of control at 10 µM (MDA-MB-468) [%] | growth, % of control at 10 µM (K562) [%] | growth, % of control at 10 µM (T47D) [%] | growth, % of control at 10 µM (MDA-MB-231) [%] | growth, % of control at 10 µM (EKVX) [%] | growth, % of control at 10 µM (U-251) [%] | growth, % of control at 10 µM (UACC-257) [%] | growth, % of control at 10 µM (SK-MEL-2) [%] | growth, % of control at 10 µM (HOP-92) [%] | also measured
CCS/C(Nc1ccccc1)=C(\C#N)C(=O)Nc1ccc(C)cc1 | 103 | 101 | 71.2 | 89 | 98.4 | 112 | 101 | 97.9 | 87.1 | 95.2 | 98.9 | 103 | 80.1 | 72.1 | 98.9 | 97.4 | 96.6 | 99.3 | 85.3 | 62.3 | growth, % of control at 10 µM (SK-MEL-5): 93.6%; growth, % of control at 10 µM (SK-OV-3): 101%; growth, % of control at 10 µM (MOLT-4): 56.6%; growth, % of control at 10 µM (NCI-H226): 95%; growth, % of control at 10 µM (RPMI-8226): 86%; growth, % of control at 10 µM (HL-60(TB)): 45.9%; growth, % of control at 10 µM (SN12C): 94.3%
CC(C)(C)S/C(Nc1ccccc1)=C(\C#N)C(=O)Nc1ccccc1 | 99.4 | 100 | 80.3 | 94.6 | 100 | 100 | 100 | 108 | 94.3 | 107 | 99.6 | 92.8 | 95.9 | 85.2 | 98.5 | 101 | 92 | 92.9 | 94 | 91.4 | growth, % of control at 10 µM (SK-MEL-5): 102%; growth, % of control at 10 µM (SK-OV-3): 105%; growth, % of control at 10 µM (MOLT-4): 69.7%; growth, % of control at 10 µM (NCI-H226): 88.9%; growth, % of control at 10 µM (RPMI-8226): 95.3%; growth, % of control at 10 µM (HL-60(TB)): 82.3%; growth, % of control at 10 µM (SN12C): 98.4%
CCS/C(Nc1ccccc1)=C(\C#N)C(=O)Nc1ccccc1 | 103 | 96.5 | 65.7 | 88.2 | 91.1 | 128 | 102 | 88.9 | 88.5 | 102 | 96.9 | 90.7 | 89.9 | 70.1 | 94.2 | 100 | 92.6 | 103 | 87.6 | 53 | growth, % of control at 10 µM (SK-MEL-5): 93.5%; growth, % of control at 10 µM (SK-OV-3): 88.2%; growth, % of control at 10 µM (MOLT-4): 69.2%; growth, % of control at 10 µM (NCI-H226): 92.9%; growth, % of control at 10 µM (RPMI-8226): 79.2%; growth, % of control at 10 µM (HL-60(TB)): 58.1%; growth, % of control at 10 µM (SN12C): 94%
